Values after ≈ are worked out from the molar mass of the structure shown.
Experiments:
L02 = test: Cytotoxicity, CCK-8 assay, normal cell line; type: cell-based; settings: L02 normal human hepatocytes, 48 h
Protocol: (§1) A lung cancer cell line (A549), gastric cancer cell line (SGC7901) and human hepatocytes (L02) were used to test the anticancer activity and cytotoxicity of the new compounds. 5-Fluorouracil (5-FU) was used as the positive control against cancer cell lines. The A549, SGC7901 and L02 cells were grown in Dulbecco’s modified Eagle’s medium (DMEM) supplemented with 10% foetal bovine serum (FBS) and antibiotics (100 U/mL penicillin-streptomycin). Cells at 80–90% confluence were split by trypsin (0.25% in PBS; pH 7.4), and the medium was changed at 24 h intervals. The cells were cultured at 37 °C in a 5% CO2 incubator. The cells were passaged three times, then approximately 1 × 10^4 cells were seeded into each well of a 96-well plate and allowed to incubate to allow attachment of the cells to the surface. After 24 h, the medium was replaced with DMEM supplemented with 10% FBS containing various concentrations (0.1, 0.3, 1, 3, 10, and 30 μg/mL) of test compounds. Each concentration was tested in triplicate. After 48 h treatment, 20 µL of CCK-8 solution was added to each well and the optical density measured at 450 nm after 3 h using a microplate reader. The IC50 values were defined as the concentrations inhibiting 50% of cell growth.

A549 = test: Cytotoxicity, CCK-8 assay; type: cell-based; settings: Homo sapiens, A549 lung cancer cells, 48 h
Protocol: as §1

SGC7901 = test: Cytotoxicity, CCK-8 assay; type: cell-based; settings: Homo sapiens, SGC-7901, SGC7901 gastric cancer cells, 48 h
Protocol: as §1

[1] = tested on: Staphyiococcus aureus CMCC 25923; test: Antibacterial MIC, serial dilution; type: cell-based, Staphylococcus aureus; settings: Staphylococcus aureus, CMCC25923; S. aureus CMCC 25923, 24 h, 37 °C; read-out: MIC
Protocol: (§2) Test bacteria were grown to mid-log phase in Mueller–Hinton broth (MHB) or Tryptone Soya Broth (TSB) and diluted 1000-fold in the same medium. Bacteria (10^5 CFU/mL) were inoculated into MHB or TSB and dispensed at 0.2 ml/well into a 96-well microtiter plate. As positive controls, gatifloxacin, moxifloxacin, norfloxacin, oxacillin, and penicillin were used. […] Bacterial growth was determined by measuring the absorption at 630 nm using a microplate reader. All experiments were carried out three times.
(§3) The evaluation of antibacterial activity of all compounds (3a–3j and 6a–6k) was performed by a serial dilution method to determine the MIC against a panel of pathogens comprising five Gram-positive strains (S. aureus (CMCC(B) 26003 and CMCC 25923), Streptococcus mutans BNCC 336931, Enterococcus faecalis CMCC 29212, and Bacillus subtilis CMCC 63501), four Gram-negative strains (E. coli (CMCC 25922 and CMCC 44568) and P. aeruginosa (CMCC 27853 and CMCC 10104)), as well as three methicillin-resistant clinical isolates (S. aureus ATCC 43300 and ATCC 33591, P. aeruginosa ATCC BAA-2111). The results are described in Tables 1 and 2. Gatifloxacin, moxifloxacin, norfloxacin, oxacillin, and penicillin were used as positive controls.

[2] = tested on: Staphylococcus aureus CMCC(B)26003; test: Antibacterial MIC, serial dilution; type: cell-based; settings: Staphylococcus aureus; S. aureus CMCC(B)26003, 24 h, 37 °C; read-out: MIC
Protocol: as §2, §3

[3] = tested on: Pseudomonas aeruginosa CMCC 10104; test: Antibacterial MIC, serial dilution; type: cell-based; settings: Pseudomonas aeruginosa, CMCC10104; P. aeruginosa CMCC 10104, 24 h, 37 °C; read-out: MIC
Protocol: as §2, §3

[4] = tested on: Streptococcus mutans BNCC 336931; test: Antibacterial MIC, serial dilution; type: cell-based; settings: Streptococcus mutans, BNCC336931; S. mutans BNCC 336931, 24 h, 37 °C; read-out: MIC
Protocol: as §2, §3

[5] = tested on: Escherichia coli CMCC 44568; test: Antibacterial MIC, serial dilution; type: cell-based; settings: Escherichia coli, CMCC44568; E. coli CMCC 44568, 24 h, 37 °C; read-out: MIC
Protocol: as §2, §3

[6] = tested on: Escherichia coli CMCC 25922; test: Antibacterial MIC, serial dilution; type: cell-based; settings: Escherichia coli, CMCC25922; E. coli CMCC 25922, 24 h, 37 °C; read-out: MIC
Protocol: as §2, §3

[7] = tested on: Bacillus subtilis CMCC 63501; test: Antibacterial MIC, serial dilution; type: cell-based; settings: Bacillus subtilis, CMCC63501; B. subtilis CMCC 63501, 24 h, 37 °C; read-out: MIC
Protocol: as §2, §3

[8] = tested on: Enterococcus faecalis CMCC 29212; test: Antibacterial MIC, serial dilution; type: cell-based; settings: Enterococcus faecalis, CMCC29212; E. faecalis CMCC 29212, 24 h, 37 °C; read-out: MIC
Protocol: as §2, §3

[9] = tested on: Pseudomonas aeruginosa CMCC 27853; test: Antibacterial MIC, serial dilution; type: cell-based; settings: Pseudomonas aeruginosa, CMCC27853; P. aeruginosa CMCC 27853, 24 h, 37 °C; read-out: MIC
Protocol: as §2, §3

[10] = tested on: Staphylococcus aureus ATCC 33591; test: Antibacterial MIC, multidrug-resistant clinical isolate; type: cell-based; settings: Staphylococcus aureus, ATCC33591; multidrug-resistant S. aureus ATCC 33591; read-out: MIC
Protocol: as §2, §3

[11] = tested on: Staphylococcus aureus ATCC 43300; test: as above; type: cell-based; settings: Staphylococcus aureus, ATCC43300; multidrug-resistant S. aureus ATCC 43300; read-out: MIC
Protocol: as §2, §3

Compound | MIC [1] [mg/L] | MIC [2] [mg/L] | MIC [3] [mg/L] | MIC [4] [mg/L] | MIC [5] [mg/L] | MIC [6] [mg/L] | MIC [7] [mg/L] | MIC [8] [mg/L] | MIC [9] [mg/L] | melting point [°C] | MIC [10] [mg/L] | MIC [11] [mg/L] | IC50 (L02) [mg/L] | IC50 (A549) [mg/L] | IC50 (SGC7901) [mg/L]
O=c1[nH]cc(F)c(=O)[nH]1 [5-Fluorouracil, reference compound] | – | – | – | – | – | – | – | – | – | – | – | – | 8.44 (≈ 64.9 µM) | 0.88 (≈ 6.77 µM) | 2.56 (≈ 19.7 µM)
N=C(N)NN=Cc1ccc(C#Cc2ccccc2)cc1 [Compound 3a, 2-(4-(Phenylethynyl)benzylidene)hydrazine-1-carboximidamide] | 4 (≈ 15.2 µM) | 1 (≈ 3.81 µM) | 4 (≈ 15.2 µM) | 4 (≈ 15.2 µM) | 4 (≈ 15.2 µM) | 4 (≈ 15.2 µM) | 2 (≈ 7.62 µM) | 1 (≈ 3.81 µM) | 16 (≈ 61 µM) | 225 to 226 | – | – | – | – | –
N=C(N)NN=Cc1ccc(C#Cc2ccccc2F)cc1 [Compound 3b, 2-(4-((2-Fluorophenyl)ethynyl)benzylidene)hydrazine-1-carboximidamide] | 8 (≈ 28.5 µM) | 1 (≈ 3.57 µM) | 8 (≈ 28.5 µM) | 4 (≈ 14.3 µM) | 8 (≈ 28.5 µM) | 4 (≈ 14.3 µM) | 2 (≈ 7.14 µM) | 1 (≈ 3.57 µM) | 128 (≈ 457 µM) | 189 to 190 | – | – | – | – | –
N=C(N)NN=Cc1ccc(C#Cc2cccc(F)c2)cc1 [Compound 3c, 2-(4-((3-Fluorophenyl)ethynyl)benzylidene)hydrazine-1-carboximidamide] | 4 (≈ 14.3 µM) | 1 (≈ 3.57 µM) | 2 (≈ 7.14 µM) | 2 (≈ 7.14 µM) | 4 (≈ 14.3 µM) | 2 (≈ 7.14 µM) | 1 (≈ 3.57 µM) | 1 (≈ 3.57 µM) | 16 (≈ 57.1 µM) | 223 to 224 | 1 (≈ 3.57 µM) | 2 (≈ 7.14 µM) | – | – | –

More lines, main results first:

MIC [1] [mg/L] | MIC [2] [mg/L] | MIC [3] [mg/L] | MIC [4] [mg/L] | MIC [5] [mg/L] | MIC [6] [mg/L] | MIC [7] [mg/L] | MIC [8] [mg/L] | MIC [9] [mg/L] | melting point [°C] | MIC [10] [mg/L] | MIC [11] [mg/L] | Compound | IC50 (L02) [mg/L] | IC50 (A549) [mg/L] | IC50 (SGC7901) [mg/L]
2 (≈ 7.14 µM) | 1 (≈ 3.57 µM) | 2 (≈ 7.14 µM) | 4 (≈ 14.3 µM) | 8 (≈ 28.5 µM) | 2 (≈ 7.14 µM) | 1 (≈ 3.57 µM) | 1 (≈ 3.57 µM) | 8 (≈ 28.5 µM) | 238 to 239 | 1 (≈ 3.57 µM) | 4 (≈ 14.3 µM) | N=C(N)NN=Cc1ccc(C#Cc2ccc(F)cc2)cc1 [Compound 3d, 2-(4-((4-Fluorophenyl)ethynyl)benzylidene)hydrazine-1-carboximidamide] | – | – | –
1 (≈ 2.93 µM) | 2 (≈ 5.86 µM) | 8 (≈ 23.4 µM) | 2 (≈ 5.86 µM) | 4 (≈ 11.7 µM) | 4 (≈ 11.7 µM) | 2 (≈ 5.86 µM) | 1 (≈ 2.93 µM) | > 128 | 188 to 190 | – | – | N=C(N)NN=Cc1ccc(C#Cc2ccccc2Br)cc1 [Compound 3h, 2-(4-((2-Bromophenyl)ethynyl)benzylidene)hydrazine-1-carboximidamide] | – | – | –
1 (≈ 2.93 µM) | 0.5 (≈ 1.47 µM) | 128 (≈ 375 µM) | 0.5 (≈ 1.47 µM) | 128 (≈ 375 µM) | 2 (≈ 5.86 µM) | 128 (≈ 375 µM) | 0.5 (≈ 1.47 µM) | > 128 | 242 to 243 | 0.5 (≈ 1.47 µM) | 2 (≈ 5.86 µM) | N=C(N)NN=Cc1ccc(C#Cc2ccc(Br)cc2)cc1 [Compound 3j, 2-(4-((4-Bromophenyl)ethynyl)benzylidene)hydrazine-1-carboximidamide] | – | – | –

Source: article PMC6968633, “Synthesis, antibacterial and anticancer activity, and docking study of aminoguanidines containing an alkynyl moiety” (Journal of Enzyme Inhibition and Medicinal Chemistry, 2019)
